Data: PubChem BioAssay AID1963833 (Molecular Pharmacology Branch, DTP, NCI, 2024)

System: 883617-216-R-J1-PDC complex spheroid viability
Test: Anticancer human tumor 883617-216-R-J1-PDC patient-derived bladder carcinoma cell line growth inhibition [POLQ]
Settings: for IC50: curve of first compound; for viability, T/C: stronger effect = lower value
Method in brief: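 Three-cell-type spheroids modelling solid tumor plus stroma served as the readout system; POL inhibitors were tested individually and in combination, concentration ranges set by clinical Cmax where known.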

[1] = second compound 0.0316 µM, first compound 0.0316 µM
[2] = second compound 0.0316 µM, first compound 0.1 µM
[3] = second compound 0.0316 µM, first compound 0.316 µM
[4] = second compound 0.0316 µM, first compound 1 µM
[5] = second compound 0.0316 µM, first compound 3.16 µM
[6] = second compound 0.0316 µM, first compound 10 µM
[7] = second compound 0.1 µM, first compound 0.0316 µM
[8] = second compound 0.1 µM, first compound 0.1 µM
[9] = second compound 0.1 µM, first compound 0.316 µM
[10] = second compound 0.1 µM, first compound 1 µM
[11] = second compound 0.1 µM, first compound 3.16 µM
[12] = second compound 0.1 µM, first compound 10 µM
[13] = second compound 0.316 µM, first compound 0.0316 µM
[14] = second compound 0.316 µM, first compound 0.1 µM
[15] = second compound 0.316 µM, first compound 0.316 µM
[16] = second compound 0.316 µM, first compound 1 µM
[17] = second compound 0.316 µM, first compound 3.16 µM
[18] = second compound 0.316 µM, first compound 10 µM
[19] = second compound 1 µM, first compound 0.0316 µM
[20] = second compound 1 µM, first compound 0.1 µM
[21] = second compound 1 µM, first compound 0.316 µM
[22] = second compound 1 µM, first compound 1 µM
[23] = second compound 1 µM, first compound 3.16 µM
[24] = second compound 1 µM, first compound 10 µM
[25] = second compound 3.16 µM, first compound 0.0316 µM
[26] = second compound 3.16 µM, first compound 0.1 µM
[27] = second compound 3.16 µM, first compound 0.316 µM
[28] = second compound 3.16 µM, first compound 1 µM
[29] = second compound 3.16 µM, first compound 3.16 µM
[30] = second compound 3.16 µM, first compound 10 µM
[31] = second compound 10 µM, first compound 0.0316 µM
[32] = second compound 10 µM, first compound 0.1 µM
[33] = second compound 10 µM, first compound 0.316 µM
[34] = second compound 10 µM, first compound 1 µM
[35] = second compound 10 µM, first compound 3.16 µM
[36] = second compound 10 µM, first compound 10 µM
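Further: spheroids exposed to compounds for seven days before readout.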
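Wherever viability, T/C is given: 100% = DMSO vehicle control viability.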

`C#Cc1c(F)ccc2cc(O)cc(-c3ncc4c(N5CC6CCC(C5)N6)nc(OCC56CCCN5CC(F)C6)nc4c3F)c12` (centres undefined) + Nc1ccc(C#CCN(C(=O)Cc2ncc(C(F)(F)F)cc2C(F)(F)F)c2ccc(F)cc2)nn1 showed an IC50 (second compound 0.0316 µM) of over 10 µM, an IC50 (second compound 0.1 µM) of over 10 µM and an IC50 (second compound 0.316 µM) of over 10 µM. For the same compound, the IC50 (second compound 1 µM) was over 10 µM, the IC50 (second compound 3.16 µM) was over 10 µM and the IC50 (second compound 10 µM) was over 10 µM. The viability, T/C [1] was 82%, the viability, T/C [2] was 92.8% and the viability, T/C [3] was 97.7%. It also gave a viability, T/C [4] of 90.3%, a viability, T/C [5] of 71.7% and a viability, T/C [6] of 75.1%. It also gave a viability, T/C [7] of 100%, a viability, T/C [8] of 98.5% and a viability, T/C [9] of 90.6%. For the same compound, the viability, T/C [10] was 93.7%, the viability, T/C [11] was 93% and the viability, T/C [12] was 81%. It also gave a viability, T/C [13] of 86.8%, a viability, T/C [14] of 84.2% and a viability, T/C [15] of 87.8%. The viability, T/C [16] was 78.7%, the viability, T/C [17] was 82.1% and the viability, T/C [18] was 84.8%. For the same compound, the viability, T/C [19] was 108%, the viability, T/C [20] was 87.7% and the viability, T/C [21] was 84.7%. For the same compound, the viability, T/C [22] was 77.9%, the viability, T/C [23] was 82.2% and the viability, T/C [24] was 80.1%. It also gave a viability, T/C [25] of 91.1%, a viability, T/C [26] of 89.7% and a viability, T/C [27] of 89.1%. It also gave a viability, T/C [28] of 101%, a viability, T/C [29] of 102% and a viability, T/C [30] of 88.1%. The viability, T/C [31] was 102%, the viability, T/C [32] was 109% and the viability, T/C [33] was 113%. For the same compound, the viability, T/C [34] was 108%, the viability, T/C [35] was 99.3% and the viability, T/C [36] was 102%.

With `CC1COCCN1c1cc(C2(S(C)(=N)=O)CC2)nc(-c2ccnc3[nH]ccc23)n1` (centres undefined) + Cc1cccc(N(C)C(=O)C2C(O)CCN2c2nc(C)cc(C(F)(F)F)c2C#N)c1 the IC50 (second compound 0.0316 µM) was 3.3 µM, the IC50 (second compound 0.1 µM) was 2.86 µM and the IC50 (second compound 0.316 µM) was 2.75 µM. For the same compound, the IC50 (second compound 1 µM) was 2.76 µM, the IC50 (second compound 3.16 µM) was 2.87 µM and the IC50 (second compound 10 µM) was 6 µM. The viability, T/C [1] was 97.7%, the viability, T/C [2] was 91.2% and the viability, T/C [3] was 92.8%. The viability, T/C [4] was 77.5%, the viability, T/C [5] was 50.9% and the viability, T/C [6] was 30.8%. The viability, T/C [7] was 102%, the viability, T/C [8] was 89.9% and the viability, T/C [9] was 87.7%. It also gave a viability, T/C [10] of 65.2%, a viability, T/C [11] of 48.6% and a viability, T/C [12] of 36.1%. It also gave a viability, T/C [13] of 88.2%, a viability, T/C [14] of 96.4% and a viability, T/C [15] of 94.7%. It also gave a viability, T/C [16] of 77.8%, a viability, T/C [17] of 46.6% and a viability, T/C [18] of 38.6%. The viability, T/C [19] was 108%, the viability, T/C [20] was 93.5% and the viability, T/C [21] was 84.3%. It also gave a viability, T/C [22] of 68.4%, a viability, T/C [23] of 43.9% and a viability, T/C [24] of 37.2%. For the same compound, the viability, T/C [25] was 105%, the viability, T/C [26] was 94.1% and the viability, T/C [27] was 93.1%. For the same compound, the viability, T/C [28] was 65.8%, the viability, T/C [29] was 50% and the viability, T/C [30] was 38%. It also gave a viability, T/C [31] of 119%, a viability, T/C [32] of 91.4% and a viability, T/C [33] of 112%. The viability, T/C [34] was 74.4%, the viability, T/C [35] was 67.6% and the viability, T/C [36] was 37.8%.
